Test results reported in ChEMBL document CHEMBL1201862, “PubChem BioAssay data set” (2004).
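Following 48 hours of exposure in 96-well plates, responses at five concentrations were used to interpolate endpoints linearly. GI50: concentration for 50% inhibition of growth.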 Calls of active or inactive are those of the source. Cut-off read from the data, not from the text of the source: active = GI50 up to about 1.1 µM and inactive = higher.

Assays:
Assay in all cases: NCI anticancer screen, dose series, 48 h
OVCAR-4 = test system: OVCAR-4
OVCAR-8 = test system: OVCAR-8
SK-MEL-28 = test system: SK-MEL-28
LOX IMVI = test system: LOX IMVI
HT-29 = test system: HT-29
EKVX = test system: EKVX
MDA-MB-231 = test system: MDA-MB-231
CCRF-CEM = test system: CCRF-CEM
MDA-N = test system: MDA-N
NCI-H522 = test system: NCI-H522
TK-10 = test system: TK-10
HCC 2998 = test system: HCC 2998
BT-549 = test system: BT-549
SF-295 = test system: SF-295
K562 = test system: K562
HCT-116 = test system: HCT-116
T47D = test system: T47D
U-251 = test system: U-251
M14 = test system: M14
MCF7 = test system: MCF7
OVCAR-3 = test system: OVCAR-3
Hs-578T = test system: Hs-578T
NCI-H226 = test system: NCI-H226
IGROV-1 = test system: IGROV-1
UACC-257 = test system: UACC-257
OVCAR-5 = test system: OVCAR-5
HL-60 = test system: HL-60
HOP-92 = test system: HOP-92
SK-MEL-5 = test system: SK-MEL-5
SR = test system: SR
786-0 = test system: 786-0
SW-620 = test system: SW-620
RXF 393 = test system: RXF 393
NCI-H460 = test system: NCI-H460
RPMI-8226 = test system: RPMI-8226
PC-3 = test system: PC-3
A498 = test system: A498
MOLT-4 = test system: MOLT-4
HOP-62 = test system: HOP-62
SF-539 = test system: SF-539
SF-268 = test system: SF-268
COLO 205 = test system: COLO 205
NCI/ADR-RES = test system: NCI/ADR-RES
A549 = test system: A549
DU-145 = test system: DU-145
CAKI-1 = test system: CAKI-1
Malme-3M = test system: Malme-3M
MDA-MB-435 = test system: MDA-MB-435
SN12C = test system: SN12C
SK-OV-3 = test system: SK-OV-3
SK-MEL-2 = test system: SK-MEL-2
UO-31 = test system: UO-31
HCT-15 = test system: HCT-15
NCI-H23 = test system: NCI-H23
ACHN = test system: ACHN
SNB-19 = test system: SNB-19
KM12 = test system: KM12
UACC-62 = test system: UACC-62
SNB-75 = test system: SNB-75

Compound: COC(=O)c1c(O)ccc2c1c1c(n2Cc2cccc(C)c2)C(=O)c2ccccc2C1=O
- GI50 (OVCAR-4): 6.46 µM (inactive)
- GI50 (OVCAR-8): 7.31 µM (inactive)
- GI50 (SK-MEL-28): 15.3 µM (inactive)
- GI50 (LOX IMVI): 11.7 µM (inactive)
- GI50 (HT-29): 4.07 µM (inactive)
- GI50 (EKVX): 19.5 µM (inactive)
- GI50 (MDA-MB-231): 16.1 µM (inactive)
- GI50 (CCRF-CEM): 4.86 µM (inactive)
- GI50 (MDA-N): 13.1 µM (inactive)
- GI50 (NCI-H522): 11.5 µM (inactive)
- GI50 (TK-10): 12 µM (inactive)
- GI50 (HCC 2998): 2.7 µM (inactive)
- GI50 (BT-549): 15 µM (inactive)
- GI50 (SF-295): 13 µM (inactive)
- GI50 (K562): 8.91 µM (inactive)
- GI50 (HCT-116): 6.97 µM (inactive)
- GI50 (T47D): 1.94 µM (inactive)
- GI50 (U-251): 11.6 µM (inactive)
- GI50 (M14): 15 µM (inactive)
- GI50 (MCF7): 5.37 µM (inactive)
- GI50 (OVCAR-3): 8.2 µM (inactive)
- GI50 (Hs-578T): 12.4 µM (inactive)
- GI50 (NCI-H226): 17.4 µM (inactive)
- GI50 (IGROV-1): 11.4 µM (inactive)
- GI50 (UACC-257): 16.6 µM (inactive)
- GI50 (OVCAR-5): 22.5 µM (inactive)
- GI50 (HL-60): 16.6 µM (inactive)
- GI50 (HOP-92): 6.61 µM (inactive)
- GI50 (SK-MEL-5): 13.1 µM (inactive)
- GI50 (SR): 4.98 µM (inactive)
- GI50 (786-0): 11.9 µM (inactive)
- GI50 (SW-620): 14.2 µM (inactive)
- GI50 (RXF 393): 10.7 µM (inactive)
- GI50 (NCI-H460): 4.29 µM (inactive)
- GI50 (RPMI-8226): 3.72 µM (inactive)
- GI50 (PC-3): 11 µM (inactive)
- GI50 (A498): 17.7 µM (inactive)
- GI50 (MOLT-4): 4.24 µM (inactive)
- GI50 (HOP-62): 16.1 µM (inactive)
- GI50 (SF-539): 14.8 µM (inactive)
- GI50 (SF-268): 12 µM (inactive)
- GI50 (COLO 205): 1.67 µM (inactive)
- GI50 (NCI/ADR-RES): 9.42 µM (inactive)
- GI50 (A549): 6.97 µM (inactive)
- GI50 (DU-145): 14.4 µM (inactive)
- GI50 (CAKI-1): 11.8 µM (inactive)
- GI50 (Malme-3M): 16.7 µM (inactive)
- GI50 (MDA-MB-435): 9.82 µM (inactive)
- GI50 (SN12C): 7.76 µM (inactive)
- GI50 (SK-OV-3): 11.4 µM (inactive)
- GI50 (SK-MEL-2): 12.6 µM (inactive)
- GI50 (UO-31): 5.92 µM (inactive)
- GI50 (HCT-15): 8.05 µM
- GI50 (NCI-H23): 11.4 µM (inactive)
- GI50 (ACHN): 11.2 µM (inactive)
- GI50 (SNB-19): 14.1 µM (inactive)
- GI50 (KM12): 11 µM (inactive)

Compound: CC(C)(Oc1ccc(Cl)cc1)C(=O)N(C(=O)N1CCN(c2ccccc2)CC1)c1ccccc1
- GI50 (OVCAR-4): 8.49 µM (inactive)
- GI50 (OVCAR-8): > 100 µM (inactive)
- GI50 (SK-MEL-28): > 100 µM (inactive)
- GI50 (LOX IMVI): > 100 µM (inactive)
- GI50 (HT-29): 6.25 µM (inactive)
- GI50 (EKVX): 5.83 µM (inactive)
- GI50 (MDA-MB-231): > 100 µM (inactive)
- GI50 (CCRF-CEM): 7.1 µM (inactive)
- GI50 (MDA-N): 62.8 µM (inactive)
- GI50 (NCI-H522): 5.57 µM (inactive)
- GI50 (TK-10): 68.5 µM (inactive)
- GI50 (HCC 2998): 92.5 µM (inactive)
- GI50 (BT-549): > 100 µM (inactive)
- GI50 (SF-295): 33.2 µM (inactive)
- GI50 (K562): 3.96 µM (inactive)
- GI50 (HCT-116): 4.06 µM (inactive)
- GI50 (UACC-62): 5.83 µM (inactive)
- GI50 (T47D): 5.48 µM (inactive)
- GI50 (U-251): 6.21 µM (inactive)
- GI50 (M14): 45.7 µM (inactive)
- GI50 (MCF7): 8.59 µM (inactive)
- GI50 (SNB-75): > 100 µM (inactive)
- GI50 (OVCAR-3): 26.7 µM (inactive)
- GI50 (Hs-578T): > 100 µM (inactive)
- GI50 (NCI-H226): 8.09 µM (inactive)
- GI50 (UACC-257): 5.62 µM (inactive)
- GI50 (OVCAR-5): > 100 µM (inactive)
- GI50 (HL-60): 4.16 µM (inactive)
- GI50 (HOP-92): > 100 µM (inactive)
- GI50 (SK-MEL-5): 4.68 µM (inactive)
- GI50 (SR): 3.76 µM (inactive)
- GI50 (786-0): 28.4 µM (inactive)
- GI50 (SW-620): 8.93 µM (inactive)
- GI50 (RXF 393): > 100 µM (inactive)
- GI50 (NCI-H460): 3.75 µM (inactive)
- GI50 (PC-3): 4.78 µM (inactive)
- GI50 (A498): 84.9 µM (inactive)
- GI50 (MOLT-4): 4.12 µM (inactive)
- GI50 (HOP-62): > 100 µM (inactive)
- GI50 (SF-539): 34.4 µM (inactive)
- GI50 (SF-268): > 100 µM (inactive)
- GI50 (COLO 205): 6.49 µM (inactive)
- GI50 (NCI/ADR-RES): 7.05 µM (inactive)
- GI50 (A549): 7.46 µM (inactive)
- GI50 (DU-145): > 100 µM (inactive)
- GI50 (CAKI-1): 7.87 µM (inactive)
- GI50 (Malme-3M): > 100 µM (inactive)
- GI50 (MDA-MB-435): 16.2 µM (inactive)
- GI50 (SN12C): 42.3 µM (inactive)
- GI50 (SK-OV-3): > 100 µM (inactive)
- GI50 (SK-MEL-2): > 100 µM (inactive)
- GI50 (UO-31): 11.7 µM (inactive)
- GI50 (HCT-15): 6.61 µM
- GI50 (NCI-H23): 8.83 µM (inactive)
- GI50 (ACHN): 9.71 µM (inactive)
- GI50 (SNB-19): > 100 µM (inactive)
- GI50 (KM12): 6.22 µM (inactive)

Compound: Cc1nc(-c2cccnc2)sc1C(=O)CC(=O)C(=O)Nc1cccc(NC(=O)C(=O)CC(=O)c2sc(-c3cccnc3)nc2C)n1
- GI50 (OVCAR-4): > 100 µM (inactive)
- GI50 (OVCAR-8): > 100 µM (inactive)
- GI50 (SK-MEL-28): > 100 µM (inactive)
- GI50 (LOX IMVI): > 100 µM (inactive)
- GI50 (HT-29): > 100 µM (inactive)
- GI50 (EKVX): > 100 µM (inactive)
- GI50 (MDA-MB-231): > 100 µM (inactive)
- GI50 (CCRF-CEM): > 100 µM (inactive)
- GI50 (MDA-N): > 100 µM (inactive)
- GI50 (NCI-H522): > 100 µM (inactive)
- GI50 (HCC 2998): > 100 µM (inactive)
- GI50 (BT-549): > 100 µM (inactive)
- GI50 (SF-295): > 100 µM (inactive)
- GI50 (K562): > 100 µM (inactive)
- GI50 (HCT-116): > 100 µM (inactive)
- GI50 (UACC-62): > 100 µM (inactive)
- GI50 (T47D): > 100 µM (inactive)
- GI50 (U-251): > 100 µM (inactive)
- GI50 (M14): > 100 µM (inactive)
- GI50 (MCF7): > 100 µM (inactive)
- GI50 (SNB-75): 68.5 µM (inactive)
- GI50 (OVCAR-3): > 100 µM (inactive)
- GI50 (Hs-578T): > 100 µM (inactive)
- GI50 (NCI-H226): > 100 µM (inactive)
- GI50 (IGROV-1): > 100 µM (inactive)
- GI50 (UACC-257): > 100 µM (inactive)
- GI50 (OVCAR-5): > 100 µM (inactive)
- GI50 (HL-60): > 100 µM (inactive)
- GI50 (HOP-92): > 100 µM (inactive)
- GI50 (SK-MEL-5): > 100 µM (inactive)
- GI50 (SR): > 100 µM (inactive)
- GI50 (786-0): > 100 µM (inactive)
- GI50 (SW-620): > 100 µM (inactive)
- GI50 (RXF 393): > 100 µM (inactive)
- GI50 (NCI-H460): > 100 µM (inactive)
- GI50 (RPMI-8226): > 100 µM (inactive)
- GI50 (PC-3): > 100 µM (inactive)
- GI50 (A498): > 100 µM (inactive)
- GI50 (MOLT-4): > 100 µM (inactive)
- GI50 (SF-539): > 100 µM (inactive)
- GI50 (SF-268): > 100 µM (inactive)
- GI50 (COLO 205): > 100 µM (inactive)
- GI50 (NCI/ADR-RES): > 100 µM (inactive)
- GI50 (A549): > 100 µM (inactive)
- GI50 (DU-145): > 100 µM (inactive)
- GI50 (CAKI-1): > 100 µM (inactive)
- GI50 (Malme-3M): > 100 µM (inactive)
- GI50 (MDA-MB-435): > 100 µM (inactive)
- GI50 (SN12C): > 100 µM (inactive)
- GI50 (SK-OV-3): > 100 µM (inactive)
- GI50 (SK-MEL-2): > 100 µM (inactive)
- GI50 (UO-31): > 100 µM (inactive)
- GI50 (HCT-15): > 100 µM
- GI50 (NCI-H23): > 100 µM (inactive)
- GI50 (ACHN): > 100 µM (inactive)
- GI50 (SNB-19): > 100 µM (inactive)
- GI50 (KM12): > 100 µM (inactive)
